Laboratory results: patent US11925643B2, “Toll-like receptor 4 (TLR4) inhibitors and use thereof” (MOR RESEARCH APPLICATIONS LTD., priority 2018, dated 2024)
Entries after “also recorded” stand apart in the source; their conditions may differ. Residues, ends and D or L forms follow the SMILES beside them.

Columns and labels:
TLR2 mRNA = TLR2 mRNA level by RT-qPCR in hypoxic cardiomyocytes (negative control); assay type: cell-based; settings: hypoxic conditions
Protocol: (§1) Real-time RT-PCR experiments were performed in duplicates on an ABI 7900 instrument (Applied Biosystems™) using Taqman™ Master Mix (Applied Biosystems™). The average threshold cycles (Ct) of the duplicates were used to calculate the relative expression levels of the following genes: TLR4 (Applied Biosystems™ assay primer ID: Mm00569848_m1 Tlr4), TLR2 (assay primer ID: Mm01769726_m1 Tlr2), TNF-α (assay primer ID: Mm00443260_g1 Tnf) and IL-1β (assay primer ID: Mm00434228_m1 II1b) in vitro and in vivo following hypoxia or ischemia, respectively. The reference gene was TBP and the primer used was derived from mouse TATA-box binding protein (Applied Biosystems™ assay primer ID: Mm00446973_m1 Tbp). Amounts of TLR2, TLR4, TNF-α and IL-1β mRNAs in each sample were calculated relative to TBP mRNA, based on the corresponding Cts, as Relative Quantity (RQ) values, and normalized taking as 1 a randomly selected sample of the control group (TBP mRNA). Calculation were performed using the Applied Biosystems Analysis™ software (StepOnePlus V2.2.2). All mRNA scores are presented in arbitrary units.
Next, peptidomimetics of SEQ ID NOs:1 and 2 were tested for their ability to affect the expression of TLR4. The level of TLR4 mRNA was measured by real-time reverse transcriptase polymerase chain reaction (RT-qPCR) method as described in Materials and Methods. […]

C57BL mice [1] = test: Heart infarct size after LAD ligation (MI mice model); assay type: in vivo
Protocol: (§2) Male wild type mice (C57BL) were purchased from Harlan™ (Jerusalem, Israel). Mice were grown in a temperature-controlled atmosphere, 12/12 hours light/dark cycle and given standard food and tap water. The experiments were performed on 2-3-month-old male mice. All experiments were carried out in accordance with the guidelines of the Animal Care and Use Committee of Tel Aviv University with the Guide for the Care and Use of Laboratory Animals published by the US National Institutes of Health.
(§3) Mice were anesthetized (with a mixture of 100 mg/kg ketamine and 10 mg/kg xylazine), intubated and ventilated with air until spontaneous breathing commenced. The left anterior descending artery (LAD) was ligated with one single stitch, forming an ischemia that can be observed almost immediately. By closing the LAD, no further blood flow is permitted in that area, while the surrounding myocardial tissue is almost not affected. This surgical procedure imitates the pathobiological and pathophysiological aspects occurring in infarction-related myocardial ischemia.
Hearts of mice from tested groups were isolated, and pictures were taken to determine the extent of infarct relative to total area of the left ventricle to thereby determine the extent of cardio-protection by an exemplary decoy peptide. The viable heart sections were put in a 1% solution of 2,3,5-triphenyl tetrazolium chloride (TTC) in phosphate buffer for 10 min at 37° C. TTC stained the viable tissue in red while necrotic tissue remained discolored. Sections were fixed overnight in 4% formaldehyde to enhance the contrast between stained and unstained tissue. The sections were then placed between two cover slips and digitally photographed using a Nikon Coolpix 5000 camera, at a resolution of 1400×960 pixels, and quantified by using ImageJ software. The area of ischemia/infarction (TTC-negative) was presented as a percentage of the entire area of the section.
Myocardial infarction (MI) in animals may be mimicked by a procedure called left anterior descending artery (LAD) ligation, described in Materials and Methods above. A pilot dose response experiment was first conducted. Decoy peptide represented by compound PM6 (0.5, 1.0 and 5.0 mg/kg) or aqueous solution of 40% polyethylene glycol (PEG 600) were administered intravenously (IV) to C57BL mice, 1 hour before LAD ligation. All mice were kept under standard animal facility conditions for 24 hours. The heart infarct size was measured in all three groups.

C57BL mice [2] = test: Serum markers CK, LDH, troponin and GOT after LAD ligation; assay type: in vivo
Protocol: as §2, §3
Blood was drawn out from the mice and immediately centrifuged at […] for 10 minutes to isolate the serum, which was obtained from the top portion of the test tube. The serum was mixed with double distilled water (DDW) in a ratio of 1:10 and was ready for assaying. Various markers were observed (CK, LDH & troponin) to determine cardiac damage in the serum.
A dose response experiment was conducted using the experiment design of the pilot experiment. PM6 was given to mice in three doses: 0.05, 0.30 and 1.00 mg/kg. Blood levels of four serum markers were assessed. The levels of three markers CK, LDH and troponin were correlated with MI severity. Troponin is a complex of three regulatory proteins that is integral to muscle contraction in skeletal muscle and cardiac muscle, and serves as a highly specific marker for myocardial infarction or heart muscle cell death. The level of the fourth marker GOT was used as an indicator for liver functions.

TNF-α mRNA = TNF-α mRNA in mouse myocardium by RT-qPCR after ischemia; assay type: in vivo, mice; settings: 0.3 mg/kg 1 hour after MI induction
Protocol: as §1, with “Calculation were performed using the Applied Biosystems Analysis™ software (StepOnePlus V2.2.2). All mRNA scores are presented in arbitrary units.” left out
(§4) Real time reverse transcriptase PCR (RT-qPCR) was conducted to identify the effect of a disclosed decoy peptide on TLR-mediated induction of the inflammatory cytokine TNF-α. The effect of an exemplary decoy peptide PM6 (0.3 mg/kg; administered 1 hour after MI induction) on TNF-α mRNA expression in mice myocardium was assessed 24 h and 7 days after ischemia induction.

C57BL mice [3] = test: Survival after ischemia induction (MI mice model); assay type: in vivo; settings: 0.3 mg/kg 1 hour after ischemia induction; 7 days; 12 mice
Protocol: as §3, §4
On the other hand, 5 out of 12 untreated mice died, which accounts for a survival rate of 58% after ischemia for the untreated mice.

C57BL mice [4] = test: Serum markers CK, LDH, troponin and GOT after LAD ligation; assay type: in vivo; settings: 0.3 mg/kg IV one hour after ligation
[5] = 0.3 mg/kg IV 1 hour before LAD ligation

SMILES | TLR2 mRNA expression level (TLR2 mRNA) | heart infarct size (C57BL mice [1]; 0.05 mg/kg IV 1 hour before LAD ligation) | infarct size (C57BL mice [1]; 0.3 mg/kg IV 1 hour after ligation, 7 days) | heart infarct size (C57BL mice [1]; 0.30 mg/kg IV 1 hour before LAD ligation) | heart infarct size (C57BL mice [1]; 1.00 mg/kg IV 1 hour before LAD ligation) | infarct size (C57BL mice [1]; pilot, 0.5 mg/kg IV 1 hour before LAD ligation, 24 hours) | serum CK level (C57BL mice [2]; [5]) | serum LDH level (C57BL mice [2]; [5]) | serum troponin level (C57BL mice [2]; [5]) | GOT level (liver function) (C57BL mice [2]; 0.05, 0.30 and 1.00 mg/kg IV 1 hour before LAD ligation) | TNF-α mRNA level in myocardium (TNF-α mRNA; 24 h) | TNF-α mRNA level in myocardium (TNF-α mRNA; 7 days) | survival rate (C57BL mice [3]) [%] | blood level of CK (C57BL mice [4]; 1 week) | blood level of LDH (C57BL mice [4]; 1 week) | level of GOT (C57BL mice [4]; 24 h and 7 days) | blood level of CK (C57BL mice [4]; 24 hours) | blood level of LDH (C57BL mice [4]; 24 hours)
CC[C@H](C)[C@H](NC(C)=O)C(=O)N[C@H](C(=O)N[C@@H](Cc1ccccc1)C(=O)N[C@@H](C)C(N)=O)C(C)C [SEQ ID NO:1, (2S,3S)-2-acetamido-N-((S)-1-(((S)-1-(((S)-1-amino-1-oxopropan-2-yl)amino)-1-oxo-3-phenylpropan-2-yl)amino)-3-methyl-1-oxobutan-2-yl)-3-methylpentanamide] (Ac-IVFA-NH2) | relatively unaffected | – | – | – | – | – | – | – | – | – | – | – | – | – | – | – | – | –
CCCCCCCCNc1nc(=O)n(Cc2ccccc2)cc1C [PM6, 1-benzyl-5-methyl-4-(octylamino)pyrimidin-2(1H)-one] | – | significantly reduced | significantly reduced | significantly reduced; also recorded: significantly effective | significantly reduced | significant effect | significantly reduced; also recorded: significant reduction | significantly reduced; also recorded: significant reduction | significantly reduced; also recorded: significant reduction | did not affect | significant reduction | significant reduction | 100 | very impressive down regulation | very impressive down regulation | did not changed dramatically | very impressive down regulation | very impressive down regulation
